Measurements as given in patent US20090209602A1, “CHEMICAL COMPOUNDS” (priority 2006, published 2009).

Target: T1, human DGAT1 (Homo sapiens, UniProt O75907)
T1 construct: made in house; host or cells: Sf9 insect cells (recombinant baculovirus), membrane fraction
T1 sequence (O75907 1-488): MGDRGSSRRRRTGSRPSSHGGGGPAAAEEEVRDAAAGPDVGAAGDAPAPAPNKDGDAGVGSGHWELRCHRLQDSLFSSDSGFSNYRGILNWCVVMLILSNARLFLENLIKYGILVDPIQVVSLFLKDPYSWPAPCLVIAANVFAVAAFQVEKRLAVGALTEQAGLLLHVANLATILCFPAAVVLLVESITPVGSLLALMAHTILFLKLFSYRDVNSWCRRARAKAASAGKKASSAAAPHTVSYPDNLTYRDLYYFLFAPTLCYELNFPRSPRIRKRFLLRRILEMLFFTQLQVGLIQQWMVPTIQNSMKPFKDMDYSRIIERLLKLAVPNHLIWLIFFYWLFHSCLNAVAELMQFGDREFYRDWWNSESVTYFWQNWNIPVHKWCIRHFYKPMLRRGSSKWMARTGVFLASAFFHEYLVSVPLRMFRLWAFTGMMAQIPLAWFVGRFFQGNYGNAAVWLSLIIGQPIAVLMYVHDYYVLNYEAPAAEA
Assay: Human Enzyme Assay (DGAT1 inhibition)
Assay type: biochemical
Conditions: human DGAT1 expressed in insect cell (sf9) membranes; 14C oleoyl coenzyme A, 30 minutes, room temperature
Experimental: The in vitro assay to identify DGAT1 inhibitors uses human DGAT1 expressed in insect cell membranes as the enzyme source (Proc. Natl. Acad. Sci. 1998, 95, 13018-13023). Briefly, sf9 cells were infected with recombinant baculovirus containing human DGAT1 coding sequences and harvested after 48 h. Cells were lysed by sonication and membranes isolated by centrifuging at 28000 rpm for 1 h at 4° C. on a 41% sucrose gradient. The membrane fraction at the interphase was collected, washed, and stored in liquid nitrogen.
DGAT1 activity was assayed by a modification of the method described by Coleman (Methods in Enzymology 1992, 209, 98-102). Compound at 1-10 μM was incubated with 0.4 μg membrane protein, 5 mM MgCl2, and 100 μM 1,2 dioleoyl-sn-glycerol in a total assay volume of 200 μl in plastic tubes. The reaction was started by adding ^14C oleoyl coenzyme A (30 μM final concentration) and incubated at room temperature for 30 minutes. The reaction was stopped by adding 1.5 mL 2-propanol:heptane:water (80:20:2). Radioactive triolein product was separated into the organic phase by adding 1 mL heptane and 0.5 mL 0.1 M carbonate buffer pH 9.5. DGAT1 activity was quantified by counting aliquots of the upper heptane layer by liquid scintillography.

O=C(O)CC1CCC(c2ccc(NC(=O)c3cnc(Nc4ccccc4)o3)cc2)CC1 (stereo not shown) [Example 1, [4-(4-{[(2-Anilino-1,3-oxazol-5-yl)carbonyl]amino}phenyl)cyclohexyl]acetic acid]
IC50: 100 nM
